Measurements taken from ChEMBL document CHEMBL2311418, “Structure-activity relationships of antitubercular salicylanilides consistent with disruption of the proton gradient via proton shuttling” (Bioorg Med Chem, 2013).
In brackets after ≈: the same amount, converted by molar mass.

Columns and labels:
[1] = system: Mycobacterium tuberculosis; assay: Antitubercular activity against Mycobacterium tuberculosis H37Rv ATCC27294 assessed as complete cessation of growth; type: functional; conditions: H37Rv ATCC 27294
[2] = Cytotoxicity against mouse macrophage cell line J774.1 (ATCC TIB-67) for 3 days by Alamar Blue; type: cell-based; conditions: 72 h

Row | SMILES | MIC [1] [µM] | IC50 [2] [µM]
1 | O=C(Nc1ccccc1)c1cc(Cl)ccc1O | 13 (≈ 3.22 µg/mL) | 22
2 | Cc1cc(NS(=O)(=O)c2ccc(NC(=O)c3cc(Cl)ccc3O)cc2)no1 | > 50 | > 60
3 | O=C(Nc1ccc(C(F)(F)F)cc1)c1cc(Cl)ccc1O | 1.6 (≈ 0.505 µg/mL) | 2.8
4 | Cc1cc(C)cc(NC(=O)c2cc(Cl)ccc2O)c1 | ≥ 50 | 21
5 | O=C(Nc1cccc(Br)c1)c1cc(Cl)ccc1O | 6.3 (≈ 2.06 µg/mL) | 5.7
6 | N#Cc1cccc(NC(=O)c2cc(Cl)ccc2O)c1 | 25 (≈ 6.82 µg/mL) | 10
7 | O=C(Nc1cccc(F)c1)c1cc(Cl)ccc1O | 6.3 (≈ 1.67 µg/mL) | 15
8 | O=C(Nc1cc(Cl)cc(Cl)c1)c1cc(Cl)ccc1O | 1.6 (≈ 0.507 µg/mL) | 3.1
9 | O=C(Nc1cc(F)cc(F)c1)c1cc(Cl)ccc1O | 3.1 (≈ 0.879 µg/mL) | 6.1
10 | O=C(O)c1cccc(NC(=O)c2cc(Cl)ccc2O)c1 | > 50 | > 60
11 | CCOC(=O)c1cccc(NC(=O)c2cc(Cl)ccc2O)c1 | 13 (≈ 4.16 µg/mL) | 17
12 | NC(=O)c1cccc(NC(=O)c2cc(Cl)ccc2O)c1 | > 50 | > 60
13 | O=C(Nc1ccccc1)c1cccc(NC(=O)c2cc(Cl)ccc2O)c1 | > 50 | > 60
14 | O=C(Nc1ccc(F)cc1)c1cc(Cl)ccc1O | 13 (≈ 3.45 µg/mL) | 17
15 | O=C(Nc1ccc(OC(F)(F)F)cc1)c1cc(Cl)ccc1O | 3.1 (≈ 1.03 µg/mL) | 7.3
16 | O=C(Nc1ccc(Oc2ccccc2)cc1)c1cc(Cl)ccc1O | 13 (≈ 4.42 µg/mL) | 43
17 | CC(C)(C)c1ccc(NC(=O)c2cc(Cl)ccc2O)cc1 | 13 (≈ 3.95 µg/mL) | 19
18 | COc1ccc(NC(=O)c2cc(Cl)ccc2O)cc1 | > 50 | > 60
19 | O=C(Nc1ccc(N2CCOCC2)cc1)c1cc(Cl)ccc1O | > 50 | –
20 | NC(=O)c1ccc(NC(=O)c2cc(Cl)ccc2O)cc1 | > 50 | > 60
21 | O=C(Nc1ccccc1)c1ccc(NC(=O)c2cc(Cl)ccc2O)cc1 | > 50 | > 60
22 | O=C(Nc1ccc(S(=O)(=O)Nc2ccccc2)cc1)c1cc(Cl)ccc1O | > 50 | > 60
23 | Cc1c(NC(=O)c2cc(Cl)ccc2O)cccc1C(F)(F)F | 3.1 (≈ 1.02 µg/mL) | 8
24 | O=C(Nc1cccc(C(F)(F)F)c1F)c1cc(Cl)ccc1O | 3.1 (≈ 1.03 µg/mL) | 5.3

Row | SMILES | MIC [1] [µM] | IC50 [2] [µM]
25 | O=C(Nc1cccc(F)c1F)c1cc(Cl)ccc1O | 13 (≈ 3.69 µg/mL) | 13
26 | O=C(Nc1ccc(F)cc1C(F)(F)F)c1cc(Cl)ccc1O | 6.3 (≈ 2.1 µg/mL) | 13
27 | O=C(Nc1ccc(Br)cc1C(F)(F)F)c1cc(Cl)ccc1O | 6.3 (≈ 2.49 µg/mL) | 11
28 | O=C(Nc1ccc(C(F)(F)F)cc1Cl)c1cc(Cl)ccc1O | 0.8 (≈ 0.28 µg/mL) | 2.4
29 | O=C(Nc1ccc(F)cc1F)c1cc(Cl)ccc1O | 13 (≈ 3.69 µg/mL) | 8.5
30 | O=C(Nc1cc(C(F)(F)F)ccc1Cl)c1cc(Cl)ccc1O | 1.6 (≈ 0.56 µg/mL) | 3.5
31 | O=C(Nc1cc(C(F)(F)F)ccc1F)c1cc(Cl)ccc1O | 1.6 (≈ 0.534 µg/mL) | 2.6
32 | O=C(Nc1cc(C(F)(F)F)ccc1Br)c1cc(Cl)ccc1O | 0.8 (≈ 0.316 µg/mL) | 2.9
33 | COc1ccc(C(F)(F)F)c(NC(=O)c2cc(Cl)ccc2O)c1 | 6.3 (≈ 2.18 µg/mL) | 4.8
34 | O=C(Nc1cc(F)ccc1Cl)c1cc(Cl)ccc1O | 3.1 (≈ 0.93 µg/mL) | 3.2
35 | O=C(Nc1cc([N+](=O)[O-])ccc1F)c1cc(Cl)ccc1O | 6.3 (≈ 1.96 µg/mL) | 8.5
36 | O=C(Nc1c(Cl)cccc1C(F)(F)F)c1cc(Cl)ccc1O | > 50 | 23
37 | O=C(Nc1c(F)cccc1F)c1cc(Cl)ccc1O | > 50 | > 60
38 | O=C(Nc1ccc(F)c(C(F)(F)F)c1)c1cc(Cl)ccc1O | 1.6 (≈ 0.534 µg/mL) | 5.3
39 | O=C(Nc1ccc(Cl)c(C(F)(F)F)c1)c1cc(Cl)ccc1O | 1.6 (≈ 0.56 µg/mL) | 4.5
40 | O=C(Nc1ccc(Br)c(C(F)(F)F)c1)c1cc(Cl)ccc1O | 3.1 (≈ 1.22 µg/mL) | 4.5
41 | N#Cc1ccc(NC(=O)c2cc(Cl)ccc2O)cc1C(F)(F)F | 6.3 (≈ 2.15 µg/mL) | 5.8
42 | O=C(Nc1ccc(F)c(Cl)c1)c1cc(Cl)ccc1O | 3.1 (≈ 0.93 µg/mL) | 4.4
43 | O=C(Nc1ccc(F)c(F)c1)c1cc(Cl)ccc1O | 3.1 (≈ 0.879 µg/mL) | 7.7
44 | Cc1ccc(NC(=O)c2cc(Cl)ccc2O)cc1I | 6.3 (≈ 2.44 µg/mL) | 6.3
45 | O=C(Nc1cc(Br)ccc1C(F)(F)F)c1cc(Cl)ccc1O | 1.6 (≈ 0.631 µg/mL) | 5.8
46 | COc1cc(NC(=O)c2cc(Cl)ccc2O)cc(C(F)(F)F)c1 | 6.3 (≈ 2.18 µg/mL) | 18
47 | CC(C)(C)c1cc(NC(=O)c2cc(Cl)ccc2O)cc(C(C)(C)C)c1 | 6.3 (≈ 2.27 µg/mL) | 4.1
48 | Cc1c(C(F)(F)F)cc(NC(=O)c2cc(Cl)ccc2O)cc1C(F)(F)F | 0.8 (≈ 0.318 µg/mL) | < 1.9

Row | SMILES | MIC [1] [µM] | IC50 [2] [µM]
49 | Cc1c(NC(=O)c2cc(Cl)ccc2O)cc(C(F)(F)F)cc1C(F)(F)F | 3.1 (≈ 1.23 µg/mL) | 3.2
50 | O=C(Nc1cc(F)c(Br)c(F)c1)c1cc(Cl)ccc1O | 1.6 (≈ 0.58 µg/mL) | 4.3
51 | O=C(Nc1cc(F)c(F)c(F)c1)c1cc(Cl)ccc1O | 1.6 (≈ 0.483 µg/mL) | 4.7
52 | O=C(Nc1cc(Cl)c(Cl)c(Cl)c1)c1cc(Cl)ccc1O | 1.6 (≈ 0.562 µg/mL) | 5.4
53 | O=C(Nc1cc(F)c(F)cc1F)c1cc(Cl)ccc1O | 3.1 (≈ 0.935 µg/mL) | 6.2
54 | O=C(Nc1ccc(F)c(F)c1F)c1cc(Cl)ccc1O | 6.3 (≈ 1.9 µg/mL) | 6.7
55 | COc1cc(NC(=O)c2cc(Cl)ccc2O)c(Cl)cc1Cl | 13 (≈ 4.51 µg/mL) | 8
56 | O=C(Nc1cc(O)c(Cl)cc1Cl)c1cc(Cl)ccc1O | > 50 | 32
57 | O=C(Nc1cc(Br)cc(C(F)(F)F)c1)c1cc(F)ccc1O | 3.1 (≈ 1.17 µg/mL) | 4.7
58 | O=C(Nc1cc(C(F)(F)F)ccc1Cl)c1cc(F)ccc1O | 3.1 (≈ 1.03 µg/mL) | 6.1
59 | O=C(Nc1cc(F)cc(F)c1)c1cc(F)ccc1O | 6.3 (≈ 1.68 µg/mL) | 9.6
60 | O=C(Nc1ccc(C(F)(F)F)cc1)c1cc(F)ccc1O | 3.1 (≈ 0.928 µg/mL) | 5.4
61 | O=C(Nc1cc(C(F)(F)F)ccc1F)c1cc(F)ccc1O | 6.3 (≈ 2 µg/mL) | 5.1
62 | O=C(Nc1cccc(C(F)(F)F)c1)c1cc(F)ccc1O | 6.3 (≈ 1.89 µg/mL) | 6.1
63 | O=C(Nc1cc(C(F)(F)F)cc(C(F)(F)F)c1)c1cccc(Cl)c1 | > 50 | > 60
64 | O=C(Nc1cc(C(F)(F)F)cc(C(F)(F)F)c1)c1ccccc1 | > 50 | –
65 | O=C(Nc1cc(C(F)(F)F)cc(C(F)(F)F)c1)c1cc(-n2cccc2)ccc1O | 3.1 (≈ 1.28 µg/mL) | 3.1
66 | Cc1ccc(O)c(C(=O)Nc2cc(C(F)(F)F)cc(C(F)(F)F)c2)c1 | 6.3 (≈ 2.29 µg/mL) | 5.4
67 | O=C(Nc1cc(C(F)(F)F)cc(C(F)(F)F)c1)c1cc(F)ccc1O | 3.1 (≈ 1.14 µg/mL) | 2.5
68 | O=C(Nc1cc(C(F)(F)F)cc(C(F)(F)F)c1)c1cc(Br)ccc1O | 6.3 (≈ 2.7 µg/mL) | 4.9
69 | O=C(Nc1cc(C(F)(F)F)cc(C(F)(F)F)c1)c1cc(I)ccc1O | 6.3 (≈ 2.99 µg/mL) | 5.6
70 | COc1ccc(O)c(C(=O)Nc2cc(C(F)(F)F)cc(C(F)(F)F)c2)c1 | 6.3 (≈ 2.39 µg/mL) | 7.7
71 | O=C(Nc1cc(C(F)(F)F)cc(C(F)(F)F)c1)c1cc(Cl)cc(Cl)c1O | 13 (≈ 5.44 µg/mL) | > 60
72 | O=C(Nc1cc(C(F)(F)F)cc(C(F)(F)F)c1)c1cccc(O)c1O | > 50 | 1.7

Row | SMILES | MIC [1] [µM] | IC50 [2] [µM]
73 | O=C(Nc1cc(C(F)(F)F)cc(C(F)(F)F)c1)c1cc([N+](=O)[O-])ccc1O | ≥ 50 | > 60
74 | CC(=O)Oc1ccc(Cl)cc1C(=O)Nc1cc(C(F)(F)F)cc(C(F)(F)F)c1 | 1.6 (≈ 0.681 µg/mL) | > 60
75 | COc1ccc(Cl)cc1C(=O)Nc1cc(C(F)(F)F)cc(C(F)(F)F)c1 | > 50 | > 60
76 | O=C(Nc1cc(C(F)(F)F)cc(C(F)(F)F)c1)c1cc(Cl)ccc1OCc1ccccc1 | > 50 | > 60
77 | Nc1ccc(Cl)cc1C(=O)Nc1cc(C(F)(F)F)cc(C(F)(F)F)c1 | > 50 | > 60
78 | O=C(Nc1cc(C(F)(F)F)cc(C(F)(F)F)c1)c1ccccc1Cl | > 50 | > 1.7
79 | Oc1ccc(Cl)cc1CNc1cc(C(F)(F)F)cc(C(F)(F)F)c1 | ≥ 50 | 7.8
80 | O=C(Nc1cc(C(F)(F)F)cc(C(F)(F)F)c1)Nc1cc(Cl)ccc1O | ≥ 50 | 13
81 | O=C(Oc1cc(C(F)(F)F)cc(C(F)(F)F)c1)c1cc(Cl)ccc1O | > 50 | > 60
82 | O=C(Nc1cc(Cl)ccc1O)c1cc(C(F)(F)F)cc(C(F)(F)F)c1 | > 50 | 12
83 | Oc1ccc(Cl)cc1C(=S)Nc1cc(C(F)(F)F)cc(C(F)(F)F)c1 | 1.6 (≈ 0.64 µg/mL) | –
84 | O=S(=O)(Nc1cc(C(F)(F)F)cc(C(F)(F)F)c1)c1cc(Cl)ccc1O | ≥ 50 | 23
85 | O=C(NCc1cc(C(F)(F)F)cc(C(F)(F)F)c1)c1cc(Cl)ccc1O | 6.3 (≈ 2.51 µg/mL) | 27
86 | O=C(Nc1ccccc1C(F)(F)F)c1cc(Cl)ccc1O | – | 19
87 | O=C(Nc1ccc(C(F)(F)F)c(C(F)(F)F)c1)c1cc(Cl)ccc1O | 0.8 (≈ 0.307 µg/mL) | 4.9
88 | O=C(Nc1cccc(C(F)(F)F)c1C(F)(F)F)c1cc(Cl)ccc1O | 6.3 (≈ 2.42 µg/mL) | 8.1
89 | O=C(Nc1cc(C(F)(F)F)ccc1C(F)(F)F)c1cc(Cl)ccc1O | 3.1 (≈ 1.19 µg/mL) | 6.6
90 | O=C(Nc1ccccc1S(=O)(=O)c1ccccc1)c1cc(Cl)ccc1O | > 50 | > 60
91 | O=C(Nc1cc(C(F)(F)F)cc(C(F)(F)F)c1)c1ccccc1O | 6.3 (≈ 2.2 µg/mL) | 12
92 | N#Cc1ccc(NC(=O)c2cc(Cl)ccc2O)cc1 | 13 (≈ 3.54 µg/mL) | 11
93 | O=C(Nc1cccc(C(F)(F)F)c1)c1cc(Cl)ccc1O | 3.1 (≈ 0.979 µg/mL) | 5.9
94 | O=C(Nc1cc(C(F)(F)F)cc(C(F)(F)F)c1)c1cc(Cl)ccc1O [IMD-0354] | 3.1 (≈ 1.19 µg/mL) | 5.2
